Results taken from patent publication US12391671B2, “Allosteric EGFR inhibitors and methods of use thereof” (Dana-Farber Cancer Institute, Inc., priority 2019, dated 2025).
Structures can show the parent of a compound that is named as a salt. Where two headings read alike, the source gives them in different places.

Key:
EGFR L858R = EGFR L858R (Homo sapiens (Human), UniProt P00533, L858R); assay: HTRF-based EGFR biochemical assay (L858R); details: 100 μM ATP, enzyme 0.1 nM
In short: (§1)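 Mutant EGFR (L858R 0.1 nM, L858R/T790M 0.02 nM) preincubated 30 min with compounds at room temperature in HEPES pH 7.0 buffer with Mg2+/Mn2+, then reacted 20 min with 1 μM biotinylated tyrosine kinase peptide and 100 μM ATP. Phosphorylation read by HTRF (Eu-cryptate anti-phosphotyrosine/streptavidin-XL665, 665/620 nm) after EDTA quench.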

[1] = tested on: EGFR mutant L858R/T790M Ba/F3 cells; assay: Ba/F3 cell proliferation model (Cell Titer Glo), EGFR L858R/T790M; assay type: cell-based, murine; details: 72 hours
In short: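 Retrovirally transduced Ba/F3 cells exposed 72 h to compound alone or with 1 μg/mL cetuximab, triplicate points, repeated at least three times. Viability by Cell Titer Glo luminescence (ATP); curves fitted by non-linear sigmoidal dose-response regression.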

[2] = tested on: EGFR mutant L858R Ba/F3 cells; assay: Ba/F3 cell proliferation model (Cell Titer Glo), EGFR L858R; assay type: cell-based, murine; details: 72 hours
Text: Example 26: Ba/F3 Cell Proliferation Models
The EGFR mutant L858R and L858R/T790M Ba/F3 cells have been previously described (Zhou, W., et al. Nature 462, 2009, 1070-1074). All cell lines were maintained in RPM 1640 (Cellgro; Mediatech Inc., Herndon. CA) supplemented with 10% FBS, 100 units/mL penicillin, 100 units/mL streptomycin. The EGFR I941R mutation was introduced via site directed mutagenesis using the Quick Change Site-Directed Mutagenesis kit (Stratagene; La Jolla, CA) according to the manufacturer's instructions. All constructs were confirmed by DNA sequencing. The constructs were shuttled into the retroviral vector JP1540 using the Cre-recombination system (Agilent Technologies, Santa Clara, CA). Ba/F3 cells were then infected with retrovirus per standard protocols, as described previously (Zhou, et al, Nature 2009). Stable clones were obtained by selection in puromycin (2 μg/ml).
Growth and inhibition of growth was assessed by the Cell Titer Glo® assay (Promega, Madison, WI) and was performed according to the manufacturer's instructions. The Cell Titer Glo® assay is a luminescence-based method used to determine the number of viable cells based on quantitation of the ATP present, which is directly proportional to the amount of metabolically active cells present. Ba/F3 cells of different EGFR genotypes were exposed to compounds as a single agent or in combination with 1 μg/mL cetuximab for 72 hours and the number of cells used per experiment was determined empirically as has been previously established (Zhou, et al., Nature 2009). All experimental points were set up in triplicates in 384-well plates and all experiments were repeated at least three times. […] The curves were fitted using a non-linear regression model with a sigmoidal dose response.

EGFR L858R/T790M = EGFR L858R/T790M (Homo sapiens (Human), UniProt P00533, L858R/T790M); assay: HTRF-based EGFR biochemical assay (L858R/T790M); details: 100 μM ATP, enzyme 0.02 nM
In short: as §1

[3] = Mus musculus, BaF3, single agent, read-out: Cell IC50 BaF3 EGFR L858R/T790M
[4] = in combination with 1 μg/mL cetuximab, read-out: Cell IC50 BaF3 EGFR L858R/T790M (+cetux.)
[5] = Mus musculus, BaF3, single agent, read-out: Cell IC50 BaF3 EGFR L858R
[6] = in combination with 1 μg/mL cetuximab, read-out: Cell IC50 BaF3 EGFR L858R (+cetux.)

EGFR L858R, sequence (P00533 25-1210 L858R): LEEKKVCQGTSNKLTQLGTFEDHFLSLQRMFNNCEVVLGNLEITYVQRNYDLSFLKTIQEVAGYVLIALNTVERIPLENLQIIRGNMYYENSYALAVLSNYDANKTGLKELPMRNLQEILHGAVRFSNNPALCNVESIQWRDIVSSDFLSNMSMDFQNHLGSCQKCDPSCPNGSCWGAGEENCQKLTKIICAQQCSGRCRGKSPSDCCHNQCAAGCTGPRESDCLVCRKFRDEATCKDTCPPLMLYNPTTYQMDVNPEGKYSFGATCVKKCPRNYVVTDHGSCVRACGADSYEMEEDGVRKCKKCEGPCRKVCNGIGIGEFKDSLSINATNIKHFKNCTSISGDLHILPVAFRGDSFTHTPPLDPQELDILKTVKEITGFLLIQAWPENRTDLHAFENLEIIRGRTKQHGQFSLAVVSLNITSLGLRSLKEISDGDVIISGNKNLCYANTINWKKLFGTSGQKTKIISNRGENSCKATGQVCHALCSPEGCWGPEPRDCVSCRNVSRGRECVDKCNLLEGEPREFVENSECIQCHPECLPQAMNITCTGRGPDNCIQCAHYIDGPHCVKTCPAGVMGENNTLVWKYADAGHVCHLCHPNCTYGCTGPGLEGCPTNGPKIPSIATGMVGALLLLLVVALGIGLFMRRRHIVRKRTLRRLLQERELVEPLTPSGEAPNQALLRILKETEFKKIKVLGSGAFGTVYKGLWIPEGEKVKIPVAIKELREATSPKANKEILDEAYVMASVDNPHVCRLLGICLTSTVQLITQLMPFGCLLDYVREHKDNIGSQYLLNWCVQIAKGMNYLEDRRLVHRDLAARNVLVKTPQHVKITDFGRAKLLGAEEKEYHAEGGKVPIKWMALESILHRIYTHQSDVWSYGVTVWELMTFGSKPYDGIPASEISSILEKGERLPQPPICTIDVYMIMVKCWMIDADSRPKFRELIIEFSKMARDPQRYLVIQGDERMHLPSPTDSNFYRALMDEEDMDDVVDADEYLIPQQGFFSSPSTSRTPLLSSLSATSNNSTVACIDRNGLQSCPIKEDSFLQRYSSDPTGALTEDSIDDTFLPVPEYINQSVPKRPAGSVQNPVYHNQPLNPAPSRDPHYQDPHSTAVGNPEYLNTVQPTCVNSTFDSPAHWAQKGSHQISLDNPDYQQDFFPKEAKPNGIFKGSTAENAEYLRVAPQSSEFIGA
EGFR L858R/T790M, sequence (P00533 25-1210 T790M/L858R): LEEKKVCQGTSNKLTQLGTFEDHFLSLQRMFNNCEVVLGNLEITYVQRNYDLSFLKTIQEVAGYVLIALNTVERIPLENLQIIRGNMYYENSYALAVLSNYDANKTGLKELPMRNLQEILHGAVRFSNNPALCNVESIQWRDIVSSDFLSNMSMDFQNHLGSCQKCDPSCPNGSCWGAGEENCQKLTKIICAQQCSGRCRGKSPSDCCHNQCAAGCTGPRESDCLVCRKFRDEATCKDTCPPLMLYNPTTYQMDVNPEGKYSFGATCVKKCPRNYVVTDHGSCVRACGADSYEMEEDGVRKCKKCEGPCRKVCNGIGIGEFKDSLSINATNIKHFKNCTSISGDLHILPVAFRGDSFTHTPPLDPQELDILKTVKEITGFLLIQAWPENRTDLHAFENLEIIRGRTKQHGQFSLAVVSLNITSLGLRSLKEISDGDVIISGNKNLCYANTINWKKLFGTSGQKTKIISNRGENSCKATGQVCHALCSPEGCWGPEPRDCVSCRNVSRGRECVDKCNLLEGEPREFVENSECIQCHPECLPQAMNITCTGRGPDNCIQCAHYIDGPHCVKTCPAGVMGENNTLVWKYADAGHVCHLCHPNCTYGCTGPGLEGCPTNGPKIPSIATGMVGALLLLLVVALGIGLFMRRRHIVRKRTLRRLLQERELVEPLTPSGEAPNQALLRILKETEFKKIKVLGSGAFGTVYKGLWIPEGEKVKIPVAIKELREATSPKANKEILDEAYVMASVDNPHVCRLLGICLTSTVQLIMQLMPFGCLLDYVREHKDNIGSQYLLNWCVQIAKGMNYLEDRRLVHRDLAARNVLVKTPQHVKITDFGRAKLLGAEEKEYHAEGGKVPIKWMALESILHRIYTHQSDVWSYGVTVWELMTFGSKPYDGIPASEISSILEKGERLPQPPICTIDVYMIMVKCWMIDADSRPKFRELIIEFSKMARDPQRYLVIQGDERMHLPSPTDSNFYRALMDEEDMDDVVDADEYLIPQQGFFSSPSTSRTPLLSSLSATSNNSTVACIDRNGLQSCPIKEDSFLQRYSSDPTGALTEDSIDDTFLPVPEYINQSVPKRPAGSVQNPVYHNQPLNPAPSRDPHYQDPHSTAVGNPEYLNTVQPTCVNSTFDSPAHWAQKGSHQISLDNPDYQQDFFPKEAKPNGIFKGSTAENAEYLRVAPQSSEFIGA

Row | SMILES | IC50 (EGFR L858R) | IC50 [1, 3] | IC50 [1, 4] | IC50 [2, 5] | IC50 [2, 6] | IC50 (EGFR L858R/T790M) | IC50 ([1]; single agent, read-out: Cell IC50 BaF3 EGFR L858R/T790M) | IC50 ([2]; single agent, read-out: Cell IC50 BaF3 EGFR L858R)
1 | CN1CCC(c2ccc(-c3ccc4ncn(C(c5nc6ccccc6[nH]5)c5cc(F)ccc5O)c(=O)c4c3F)cc2)CC1 (centres unmarked) [Compound 004, 3-((1H-Benzo[d]imidazol-2-yl)(5-fluoro-2-hydroxyphenyl)methyl)-5-fluoro-6-(4-(1-methylpiperidin-4-yl)phenyl)quinazolin-4(3H)-one 2,2,2-trifluoroacetate] | 1 nM | 90 nM | 10 nM | 240 nM | 30 nM | 0.4 nM | – | –
2 | CN1CCC(c2ccc(-c3ccc4ncn(C(c5nc6ccccc6[nH]5)c5cc(F)ccc5O)c(=O)c4c3)cc2)CC1 (centres unmarked) [Compound 006, 3-[1H-Benzimidazol-2-yl-(5-fluoro-2-hydroxy-phenyl)methyl]-6-[4-(1-methyl-4-piperidyl)-phenyl]quinazolin-4-one;hydrochloride] | 2 nM | 280 nM | 5 nM | 1100 nM | 60 nM | 0.5 nM | – | –
3 | CN1CCC(c2ccc(-c3ccc4ncn(C(c5nc6ccccc6[nH]5)c5cc(F)ccc5O)c(=O)c4n3)cc2)CC1 (centres unmarked) [Compound 009, 3-((1H-Benzo[d]imidazol-2-yl)(5-fluoro-2-hydroxyphenyl)methyl)-6-(4-(1-methylpiperidin-4-yl)phenyl)pyrido[3,2-d]pyrimidin-4(3H)-one 2,2,2-trifluoroacetate] | 3 nM | 940 nM | 20 nM | 3890 nM | 180 nM | 0.4 nM | – | –
4 | CN1CCC(c2ccc(-c3ccc4c(c3)C(=O)N(C(c3nc5cccnc5[nH]3)c3cc(F)ccc3O)C4)cc2)CC1 (centres unmarked) [Compound 014, 2-[(5-Fluoro-2-hydroxy-phenyl)-(3H-imidazo[4,5-b]pyridin-2-yl)methyl]-6-[4-(1-methyl-4-piperidyl)phenyl]isoindolin-1-one; hydrochloride] | 2 nM | 710 nM | 10 nM | 810 nM | 60 nM | 0.3 nM | – | –
5 | CN1CCC(c2ccc(-c3ccc4c(c3)C(=O)N([C@@H](c3nc5ccccc5[nH]3)c3cc(F)ccc3O)C4)cc2)CC1 [Compound 022, 2-[(R)-1H-benzimidazol-2-yl-(5-fluoro-2-hydroxy-phenyl)methyl]-6-[4-(1-methyl-4-piperidyl)phenyl]isoindolin-1-one] | 0.3 nM | – | 5 nM | – | 40 nM | 0.1 nM | 380 nM | 640 nM
6 | CN1CCC(c2ccc(-c3ccc4c(c3)C(=O)N(C(c3nc5ccccc5[nH]3)c3cc(F)ccc3O)C4)cc2)CC1 (centres unmarked) [Compound 024, 2-[1H-Benzimidazol-2-yl-(5-fluoro-2-hydroxy-phenyl)methyl]-6-[4-(1-methyl-4-piperidyl)phenyl]isoindolin-1-one; hydrochloride] | 2 nM | 440 nM | 7 nM | 1180 nM | 60 nM | 0.5 nM | – | –
7 | CN1CCC(c2ccc(-c3ccc4cn(C(c5nc6ccccc6[nH]5)c5cc(F)ccc5O)nc4c3F)cc2)CC1 (centres unmarked) [Compound 034, 2-[1H-benzimidazol-2-yl-[7-fluoro-6-[4-(1-methyl-4-piperidyl)phenyl]indazol-2-yl]methyl]-4-fluoro-phenol;hydrochloride] | 4 nM | 420 nM | 5 nM | 1430 nM | 60 nM | 0.7 nM | – | –
8 | CN1CCC(c2ccc(-c3ccc4ccn(C(c5nc6ccccc6[nH]5)c5cc(F)ccc5O)c(=O)c4c3)cc2)CC1 (centres unmarked) [Compound 063, 2-[1H-benzimidazol-2-yl-(5-fluoro-2-hydroxy-phenyl)methyl]-7-[4-(1-methyl-4-piperidyl)phenyl]isoquinolin-1-one] | 9 nM | 890 nM | 50 nM | 1050 nM | – | 2 nM | – | –
9 | CN1CCC(c2ccc(-c3cc(F)c4c(=O)n(C(c5ccccc5)c5nc6ccccc6[nH]5)ccc4c3)cc2)CC1 (centres unmarked) [Compound 064, 2-[1H-benzimidazol-2-yl(phenyl)methyl]-8-fluoro-6-[4-(1-methyl-4-piperidyl)phenyl]-isoquinolin-1-one; dihydrochloride] | 31 nM | 220 nM | 20 nM | 670 nM | – | 20 nM | – | –
10 | CN1CCC(c2ccc(-c3cc(F)c4c(=O)n(C(c5nc6ccccc6[nH]5)c5cc(F)ccc5O)ccc4c3)cc2)CC1 (centres unmarked) [Compound 070, 2-[1H-benzimidazol-2-yl-(5-fluoro-2-hydroxy-phenyl)methyl]-8-fluoro-6-[4-(1-methyl-4-piperidyl)phenyl]isoquinolin-1-one] | 4 nM | 70 nM | 5 nM | 160 nM | – | 1 nM | – | –
11 | CN1CCC(c2ccc(-c3ccc4ccn(C(c5ccccc5)c5nc6ccccc6[nH]5)c(=O)c4c3F)cc2)CC1 (centres unmarked) [Compound 071] | > 100 nM | 1380 nM | 330 nM | 1210 nM | – | 20 nM | – | –
12 | CN1CCC(c2ccc(-c3cc4ccn(C(c5nc6ccccc6[nH]5)c5cc(F)ccc5O)c(=O)c4cc3F)cc2)CC1 (centres unmarked) [Compound 073, 2-[1H-benzimidazol-2-yl-(5-fluoro-2-hydroxy-phenyl)methyl]-7-fluoro-6-[4-(1-methyl-4-piperidy)phenyl]-isoquinolin-1-one] | 21 nM | 580 nM | 20 nM | 930 nM | – | 14 nM | – | –
13 | CCc1c(-c2ccc(C3CCN(C)CC3)cc2)ccc2ncn(C(c3nc4ccccc4[nH]3)c3cc(F)ccc3O)c(=O)c12 (centres unmarked) [Compound 074, 3-[1H-benzimidazol-2-yl-(5-fluoro-2-hydroxy-phenyl)methyl]-5-ethyl-6-[4-(1-methyl-4-piperidyl)phenyl]-quinazolin-4-one; dihydrochloride] | 2 nM | 120 nM | 20 nM | 110 nM | – | 1 nM | – | –
14 | CN1CCC(c2ccc(-c3ccc4ncn(C(c5nc6ccccc6[nH]5)c5cc(F)ccc5O)c(=O)c4c3Cl)cc2)CC1 (centres unmarked) [Compound 075, 3-[1H-benzimidazol-2-yl-(5-fluoro-2-hydroxy-phenyl)methyl]-5-chloro-6-[4-(1-methyl-4-piperidy)phenyl]-quinazolin-4-one; dihydrochloride] | 1 nM | 90 nM | 20 nM | 100 nM | – | 0.7 nM | – | –
15 | CN1CCC(c2ccc(-c3ccc4ncn(C(c5nc6ccccc6[nH]5)c5cc(F)ccc5O)c(=O)c4c3C(F)(F)F)cc2)CC1 (centres unmarked) [Compound 076, 3-[1H-benzimidazol-2-yl-(5-fluoro-2-hydroxy-phenyl)methyl]-6-[4-(1-methyl-4-piperidyl)phenyl]-5-(trifluoromethyl)quinazolin-4-one; dihydrochloride] | 2 nM | 140 nM | 30 nM | 90 nM | – | 2 nM | – | –
16 | COc1c(-c2ccc(C3CCN(C)CC3)cc2)ccc2ncn(C(c3nc4ccccc4[nH]3)c3cc(F)ccc3O)c(=O)c12 (centres unmarked) [Compound 077, 3-[1H-benzimidazol-2-yl-(5-fluoro-2-hydroxy-phenyl)methyl]-5-methoxy-6-[4-(1-methyl-4-piperidyl)phenyl]quinazolin-4-one;dihydrochloride] | 2 nM | 450 nM | 50 nM | 910 nM | – | 2 nM | – | –
17 | CN1CCC(c2ccc(-c3ccc4c(c3)C(=S)N(C(c3nc5ccccc5[nH]3)c3cc(F)ccc3O)C4)cc2)CC1 (centres unmarked) [Compound 078, 2-[1H-benzimidazol-2-yl-(5-fluoro-2-hydroxy-phenyl)methyl]-6-[4-(1-methyl-4-piperidyl)phenyl]isoindoline-1-thione;dihydrochloride] | 3 nM | 310 nM | 20 nM | 690 nM | – | 1 nM | – | –
